Measurements published in patent US20170223976A1, “MODIFIED MILK POWDER CONTAINING 1,5-ANHYDRO-D-GLUCITOL” (NIHON STARCH CO., LTD., priority 2015, published 2017).

Columns and labels:
PC12 cells = assay: Determination of neurite outgrowth rate in PC12 cells (image count); type: cell-based; conditions: for cells showing a neurite outgrowth rate of 1 time or more / cells showing a neurite outgrowth rate of 2 times or more: 96 hours
Description: PSG-1 belongs to an immunoglobulin super family which includes some having the function of promoting neurogenesis. Then, the influence of 1,5-AG upon neuritogenesis was investigated. This was evaluated in a test system using PC12 cells which are generally used for the evaluation of neuritogenesis.
PC12 cells (Lot No. 48, Lot No. 51) (RIKEN cell bank, material 1)
DMEM medium prepared by adding 0.1% of FBS, 0.1% of HS, 1 ng/mL NGF and 1% of penicillin-streptomycin
PC12 cells were initiated in a T-75 flask by using a growth medium to be cultured in a CO2 incubator (5% CO2, 37° C., moistening). Medium exchange was carried out every 2 days, the cells were collected when 80% confluence was reached, and cells having a passage number of 2 were used in this test. Stated more specifically, after the cells were washed with D-PBS (−), the cells were separated by using 0.05% trypsin, and a growth medium was added to neutralize trypsin. Then, the supernatant was removed by centrifugation (180 g, 5 minutes), a growth medium was added to stir the cells, the number of the cells was counted by using a corpuscle calculating board, and a growth medium was used to achieve a target concentration (2.0×10^3 cells/100 μL).
A test was carried out at five concentrations (1.6, 8, 40, 200 and 1,000 μg/mL) of 1,5-AG. Stated more specifically, a 1,5-AG aqueous solution having a concentration of 100 mg/mL was diluted with water to prepare 100 times-concentrated solutions having concentrations of 0.16, 0.8, 4, 20 and 100 mg/mL. These 100 times-concentrated solutions were each added to a test medium in a ratio of 1/100 to achieve final concentrations of 1.6, 8, 40, 200 and 1,000 μg/mL and sterilized with a filter to be used in the test. As a negative control, water was added to a medium in a ratio of 1/100 and sterilized with a filter to be used in the test. As a positive control, a test medium containing a 100 ng/mL nerve growth factor (NGF) was used.
A growth medium was used to adjust the cells to a concentration of 2.0×10^3 cells/100 μL/well, and the cells were scattered in a collagen-coated 96-well plate to be cultured in a CO2 incubator (5% CO2, 37° C., moistening) for 24 hours. After culture, the medium was replaced by a sample-containing test medium (100 μL), and the cells were cultured in a CO2 incubator for 96 hours. After the end of culture, an image of the cells in each well was taken with a phase difference microscope and used for the measurement of nuetrite outgrowth rate, and nuclei and cytoplasms were fluorescent dyed by using a neurite outgrowth staining kit to measure the number of living cells and the amount of neurite outgrowth. These procedures were carried out five times each.
Based on the image taken above, the total number of cells, the number of cells showing the same or higher neurite outgrowth than the cell length and the number of cells showing neurites having a length 2 times or more than the cell length were measured from the image of the cells. The percentage (%) of cells showing neurite outgrowth was calculated from the measurement values.

mesenchymal stem cells = assay: GeneChip analysis using mesenchymal stem cells; type: cell-based, human; conditions: 1,5-AG reduced from 40 μg/mL to 1 μg/mL or less, 10th day
Description: GeneChip analysis using mesenchymal stem cells was carried out to clarify the function of 1,5-AG in a human. After 1,5-AG was added to a medium to ensure that the final concentration of 1,5-AG became not more than 1 μg/mL or 40 μg/mL and the mesenchymal stem cells were cultured for 10 days, total RNA was collected to carry out GeneChip analysis so as to analyze genes which were expressed and fluctuated according to the difference in the amount of 1,5-AG cyclopaedically. A similar test was carried out 3 times to obtain results which were then summarized and analyzed. The test was carried out by the following method.
Crystalline 1,5-AG was dissolved in pure water to a concentration of 40 mg/mL and filtered with a centrifugal ultrafiltration membrane having a molecular weight cut-off of 3,000 to remove trace macromolecules.
Mesenchymal cells derived from bone marrow (Riken Cell Bank, Resource No. MSC-R46)
DMEM prepared by adding 10% fetal bovine serum (FBS) and a 3 ng/mL fibroblast growth factor (FGF-2) (to be referred to as “growth medium” hereinafter) was used for the preculture of the mesenchymal stem cells. 10% FBS-added DMEM (to be referred to as “test medium” hereinafter) was used in this test. FGF-2 has the function of keeping the undifferentiated state of the mesenchymal stem cells, and the undifferentiated state of the cells was maintained by using the FGF-2-added medium during preculture. In this test, to analyze the differentiation-inducing effect of the sample, a medium containing no FGF-2 was used.
The human mesenchymal cells were initiated in a T-75 flask by using the growth medium and cultured in a CO2 incubator (5% CO2, 37° C., moistening). Medium exchange was carried out every 2 days, and the cells were separated by using 0.25% Trypsin/EDTA when 80% confluence was reached and collected to be used in this test.
The sample was added to a test medium to ensure that the final concentration of 1,5-AG became 40 μg/mL. […]

type 2 diabetes model = conditions: in vivo; cited from earlier work
insulinoma cell lines = conditions: cited from earlier work

OC[C@H]1OC[C@H](O)[C@@H](O)[C@@H]1O [1,5-AG, 1,5-anhydro-D-glucitol]
cells showing a neurite outgrowth rate of 1 time or more (PC12 cells; 40 μg/mL 1,5-AG): 15.8%
cells showing a neurite outgrowth rate of 2 times or more (PC12 cells; 40 μg/mL 1,5-AG): 10.3%
cells showing a neurite outgrowth rate of 1 time or more (PC12 cells; 200 μg/mL 1,5-AG): 18.7%
cells showing a neurite outgrowth rate of 2 times or more (PC12 cells; 200 μg/mL 1,5-AG): 10.4%
cells showing a neurite outgrowth rate of 2 times or more, relative to non-added section (PC12 cells; 40 and 200 μg/mL 1,5-AG): about 2 times
expression of CSH-1 (mesenchymal stem cells): decreases as well
expression of interleukin 6 signal transducer (IL6ST) gene (mesenchymal stem cells): reduced most
expression of pregnancy specific beta-1-glycoprotein 1 (PSG-1) gene (mesenchymal stem cells; rank among genes whose expression was reduced): observed after these
anti-diabetic effect (type 2 diabetes model): anti-diabetic effect
secretion of insulin (insulinoma cell lines): promotes the secretion of insulin
